“Also recorded” adds a separate entry of the source.
What was measured:
D1 = D1 (Homo sapiens, UniProt P21728); assay: Compound Binding Profiles: D1; settings: read-out: D1 binding class
D2 = D2 (Homo sapiens, UniProt P14416); assay: Compound Binding Profiles: D2; settings: * = Estimated IC50
M1 = target: T1, M1 (Homo sapiens, UniProt P11229); assay: Compound Binding Profiles: M1; settings: * = Estimated IC50
T1 sequence (P11229 1-460): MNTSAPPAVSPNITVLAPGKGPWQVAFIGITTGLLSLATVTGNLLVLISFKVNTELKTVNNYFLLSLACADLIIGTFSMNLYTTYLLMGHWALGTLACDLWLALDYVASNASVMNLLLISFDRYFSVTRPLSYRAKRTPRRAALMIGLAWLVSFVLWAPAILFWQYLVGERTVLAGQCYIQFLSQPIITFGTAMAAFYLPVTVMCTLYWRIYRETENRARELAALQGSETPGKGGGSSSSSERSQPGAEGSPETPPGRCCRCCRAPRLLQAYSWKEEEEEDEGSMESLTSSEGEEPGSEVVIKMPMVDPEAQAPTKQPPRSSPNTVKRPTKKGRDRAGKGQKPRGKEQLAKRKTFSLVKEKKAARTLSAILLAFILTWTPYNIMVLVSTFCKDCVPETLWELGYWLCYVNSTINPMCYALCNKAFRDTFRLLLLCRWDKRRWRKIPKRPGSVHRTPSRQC

α1 = assay: Compound Binding Profiles: α1; settings: * = Estimated IC50
α2 = assay: Compound Binding Profiles: α2; settings: * = Estimated IC50
[1] = Oral pharmacokinetics in dogs; settings: dog, in vivo, oral administration 5 mg/kg
[2] = Oral pharmacokinetics in rodents; settings: in vivo, oral administration 5 mg/kg
[3] = Food intake and body weight in rats, sub-chronic dosing; assay type: in vivo; settings: sub-chronic dosing 10 and 30 mg/kg qd, i.p.
[4] = Food intake and body weight in mice, sub-chronic dosing; assay type: in vivo; settings: sub-chronic dosing 10 and 30 mg/kg qd, i.p.
[5] = Novel object recognition test; assay type: in vivo, C57Bl/6J mice; settings: for Memory index, Mean: 10 min test; for Exploration time, Diff of Means 10% DMSO vs. treatment: within Familiar; for Exploration time, Diff of Means treatment vs. 10% DMSO: within Novel
Description: Male C57Bl/6J mice from Jackson Laboratories (Bar Harbor, Me.) were used. Mice were received at 6-weeks of age. Upon receipt, mice were assigned unique identification numbers (tail marked) and were group housed in polycarbonate cages with filter tops. All animals remained housed in groups of four during the remainder of the study. All mice were acclimated to the colony room for at least two weeks prior to testing and were subsequently tested at an average age of 8 weeks of age. During the period of acclimation, mice were examined on a regular basis, handled, and weighed to assure adequate health and suitability. Mice were maintained on a 12/12 light/dark cycle with the light on at 6:00 a.m. The room temperature was maintained between 20 and 23° C. with a relative humidity maintained between 30% and 70%. Chow and water were provided ad libitum for the duration of the study. In each test, animals were randomly assigned across treatment groups.
The pH at the 10 mg/kg was around 5.5.
Rolipram, also dissolved in 10% DMSO was only administered 20 min prior to training on Day 2.
On Day 1, mice were habituated to a circular open field environment (d=18 in, h=15 cm) for one hour in cage groups of four. Each Arena was constructed out of acrylic that was painted black to block reflection. On day 2, mice were placed back into the same arena for a training trial and allowed to explore a set of two identical objects placed equidistance apart from both each other and the arena walls. Individual mice were trained for a total of 15 minutes and then placed back into their home cages. On Day 3, mice were placed back into the same arena in the presence of both the familiar (previously explored) and a novel object. The spatial positions of the familiar and novel object (i.e. left-right sides) were counterbalanced between subjects. The difference in time spent exploring each object during the test trial was used as an index of object recognition and memory retention. Each animals test trial was recorded and these tapes were observed and scored after test completion. The first 10 min of each session was scored and object recognition was computed using the formula: (Time spent with novel object*100)/(Total Time exploring both objects). Tissue Harvest
Data were analyzed by analysis of variance (ANOVA) followed by post-hoc comparisons with Fisher Tests when appropriate. An effect was considered significant if p<0.05. Data are represented as the mean and standard error to the mean.

CYP1A2 = target: T2, CYP1A2 (Homo sapiens, UniProt P05177); assay: CYP inhibition CYP1A2
T2 sequence (P05177 1-516): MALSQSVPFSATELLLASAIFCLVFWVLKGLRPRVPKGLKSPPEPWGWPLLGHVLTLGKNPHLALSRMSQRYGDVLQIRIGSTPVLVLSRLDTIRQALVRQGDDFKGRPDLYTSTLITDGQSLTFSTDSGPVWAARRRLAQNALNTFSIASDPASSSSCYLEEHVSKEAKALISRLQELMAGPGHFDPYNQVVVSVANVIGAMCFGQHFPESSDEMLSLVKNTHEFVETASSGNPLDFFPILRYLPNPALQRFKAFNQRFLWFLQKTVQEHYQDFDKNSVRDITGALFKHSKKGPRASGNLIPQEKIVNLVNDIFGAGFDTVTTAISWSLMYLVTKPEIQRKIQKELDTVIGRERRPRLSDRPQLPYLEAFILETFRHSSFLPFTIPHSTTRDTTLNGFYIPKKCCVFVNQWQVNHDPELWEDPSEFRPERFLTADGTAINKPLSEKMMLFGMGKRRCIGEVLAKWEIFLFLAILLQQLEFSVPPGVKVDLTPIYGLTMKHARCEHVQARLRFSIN

CYP3A4 = CYP3A4 (Homo sapiens, UniProt P08684); assay: CYP inhibition CYP3A4
CYP3A4, sequence (P08684 whole entry): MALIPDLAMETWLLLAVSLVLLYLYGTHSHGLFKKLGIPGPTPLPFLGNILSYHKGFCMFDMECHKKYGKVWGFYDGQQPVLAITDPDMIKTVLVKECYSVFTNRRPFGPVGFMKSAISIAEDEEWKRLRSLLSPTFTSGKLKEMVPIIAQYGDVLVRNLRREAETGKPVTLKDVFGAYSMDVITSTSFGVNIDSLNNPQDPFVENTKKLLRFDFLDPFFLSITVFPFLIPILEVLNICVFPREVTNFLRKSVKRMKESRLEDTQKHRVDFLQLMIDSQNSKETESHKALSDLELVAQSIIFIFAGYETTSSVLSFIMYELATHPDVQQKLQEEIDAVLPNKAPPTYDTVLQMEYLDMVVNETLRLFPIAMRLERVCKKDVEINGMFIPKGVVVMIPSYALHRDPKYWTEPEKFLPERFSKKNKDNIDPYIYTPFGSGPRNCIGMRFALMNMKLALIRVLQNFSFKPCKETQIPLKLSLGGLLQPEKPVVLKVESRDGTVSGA

CYP2D6 = CYP2D6 (Homo sapiens, UniProt P10635); assay: CYP inhibition CYP2D6
CYP2D6, sequence (P10635 whole entry): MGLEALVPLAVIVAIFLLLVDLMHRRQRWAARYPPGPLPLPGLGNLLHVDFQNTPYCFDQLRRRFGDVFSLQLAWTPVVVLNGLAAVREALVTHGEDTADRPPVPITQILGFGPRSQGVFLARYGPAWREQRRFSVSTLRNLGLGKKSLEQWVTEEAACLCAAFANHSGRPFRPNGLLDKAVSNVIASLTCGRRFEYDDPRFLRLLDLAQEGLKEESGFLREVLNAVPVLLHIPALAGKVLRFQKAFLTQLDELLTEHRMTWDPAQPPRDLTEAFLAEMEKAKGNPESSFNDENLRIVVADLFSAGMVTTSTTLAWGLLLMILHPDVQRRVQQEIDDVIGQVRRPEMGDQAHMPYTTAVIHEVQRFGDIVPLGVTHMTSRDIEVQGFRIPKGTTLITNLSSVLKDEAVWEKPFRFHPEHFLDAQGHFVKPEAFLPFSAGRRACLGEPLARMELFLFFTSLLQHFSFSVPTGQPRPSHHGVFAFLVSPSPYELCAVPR

D1, sequence (P21728 whole entry): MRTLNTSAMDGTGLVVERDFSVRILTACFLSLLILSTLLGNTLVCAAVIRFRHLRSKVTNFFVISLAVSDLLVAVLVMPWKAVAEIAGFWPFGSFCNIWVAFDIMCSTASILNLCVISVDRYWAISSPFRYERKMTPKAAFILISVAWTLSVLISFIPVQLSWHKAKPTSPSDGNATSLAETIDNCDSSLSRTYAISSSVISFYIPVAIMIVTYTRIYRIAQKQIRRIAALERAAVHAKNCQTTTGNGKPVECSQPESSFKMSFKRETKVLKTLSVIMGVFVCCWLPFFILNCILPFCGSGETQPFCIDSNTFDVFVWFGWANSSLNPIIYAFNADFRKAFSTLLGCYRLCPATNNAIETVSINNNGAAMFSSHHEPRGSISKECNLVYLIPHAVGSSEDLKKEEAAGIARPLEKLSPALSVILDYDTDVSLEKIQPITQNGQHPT
D2, sequence (P14416 whole entry): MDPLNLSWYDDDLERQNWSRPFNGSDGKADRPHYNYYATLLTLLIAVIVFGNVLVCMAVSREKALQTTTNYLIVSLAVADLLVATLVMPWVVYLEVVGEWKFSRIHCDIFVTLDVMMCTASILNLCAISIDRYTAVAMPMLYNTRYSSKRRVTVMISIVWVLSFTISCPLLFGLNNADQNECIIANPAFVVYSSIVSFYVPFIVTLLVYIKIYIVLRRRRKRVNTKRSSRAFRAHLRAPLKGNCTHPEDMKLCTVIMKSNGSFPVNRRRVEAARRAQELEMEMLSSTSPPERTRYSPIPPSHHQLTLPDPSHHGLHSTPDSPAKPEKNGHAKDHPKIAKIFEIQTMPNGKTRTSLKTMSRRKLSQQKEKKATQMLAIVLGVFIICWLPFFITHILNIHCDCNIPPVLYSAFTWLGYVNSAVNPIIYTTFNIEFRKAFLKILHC

COc1cc(Cl)cc(C(C)Nc2cc(N3CCNCC3)ccc2S(C)(=O)=O)c1OC.Cl (stereo not drawn) [Compound A, [1-(5-Chloro-2,3-dimethoxy-phenyl)-ethyl]-(2-methanesulfonyl-5-piperazin-1-yl-phenyl)-amine hydrochloride]
Ki (D1): 0.1 to 1 µM | IC50 (D2): 9 µM | IC50 (M1): 3.4 µM | IC50 (α1): 24 µM | IC50 (α2): 23 µM | bioavailability ([1]; read-out: bioavailability F): 81% | half-life ([1]; read-out: half-life T1/2 (converted)): 5 h | bioavailability [2]: 38% | half-life [2]: 1.5 h | body weight [3]: significant reduction | food intake [3]: significant reduction | body weight [4]: significant reduction | food intake [4]: significant reduction | Exploration time, Diff of Means Novel vs. Familiar ([5]; 1 mg/kg): 14.456 | Memory index, Mean Diff. Vehicle versus treatment (Fisher's PLSD) ([5]; 1 mg/kg): −4.573 | Memory index, Mean ([5]; 1 mg/kg i.p.): 61.179 | Exploration time, Mean ([5]; 1 mg/kg, Familiar Object): 24.810 | Exploration time, Mean ([5]; 1 mg/kg, Novel Object): 39.266 | Exploration time, Diff of Means Novel vs. Familiar ([5]; 3 mg/kg): 23.871 | effect on recognition index / object recognition compared to vehicle ([5]; 3 mg/kg and 10 mg/kg, hydrochloride): significantly increased the recognition index; also recorded: significant, positive effect on object recognition | Memory index, Mean ([5]; 3 mg/kg i.p.): 68.946 | Exploration time, Mean ([5]; 3 mg/kg, Familiar Object): 17.506 | Exploration time, Mean ([5]; 3 mg/kg, Novel Object): 41.377 | Exploration time, Diff of Means Novel vs. Familiar ([5]; 10 mg/kg): 18.878 | Memory index, Mean Diff. Vehicle versus treatment (Fisher's PLSD) ([5]; 10 mg/kg): −9.784 | Memory index, Mean ([5]; 10 mg/kg i.p.): 66.391 | Exploration time, Mean ([5]; 10 mg/kg, Familiar Object): 16.153 | Exploration time, Mean ([5]; 10 mg/kg, Novel Object): 35.031 | time exploring novel object versus familiar object ([5]; 1, 3, and 10 mg/kg): spent more time exploring novel object than the familiar object | Exploration time, Diff of Means 10% DMSO vs. treatment ([5]; 1 mg/kg): 0.831 | Exploration time, Diff of Means 10% DMSO vs. treatment ([5]; 3 mg/kg): 6.473 | Exploration time, Diff of Means 10% DMSO vs. treatment ([5]; 10 mg/kg): 7.826 | Exploration time, Diff of Means treatment vs. 10% DMSO ([5]; 1 mg/kg): 8.282 | Exploration time, Diff of Means treatment vs. 10% DMSO ([5]; 3 mg/kg): 10.393 | Exploration time, Diff of Means treatment vs. 10% DMSO ([5]; 10 mg/kg): 4.047 | stability (HLM) (Stability in HLM): > 90 min | IC50 (CYP1A2): > 7.5 µM | IC50 (CYP3A4): > 7.5 µM | IC50 (CYP2D6): 7.81 µM

— patent publication US8604021B2, “Substituted arylamine compounds and methods of treatment” (priority 2005, dated 2013)
